{"source": "ChEMBL document CHEMBL5528066", "about": "“Discovery of Novel N-(Anthracen-9-ylmethyl) Benzamide Derivatives as ZNF207 Inhibitors Promising in Treating Glioma” (J Med Chem, 2024)", "key": {"U-251 [1]": {"test_system": "U-251", "test": "Inhibition of sphere formation in human U-251MG cells at 8 uM measured after 10 days in well containing 10 cells by microscopic analysis", "type": "functional, cell-based", "details": "time 10.0 day"}, "H4 [2]": {"test_system": "H4", "test": "Inhibition of sphere formation in human H4 cells assessed as fold reduction in sphere initiating frequency at 1 uM incubated for 10 days by microscopic analysis relative to control", "type": "functional", "details": "time 10 day"}, "[3]": {"test": "Drug concentration in male Sprague-Dawley rat spleen at 45 mg/kg, po measured after 8 hrs by LC-MS/MS analysis", "type": "ADME, organism-based", "details": "read-out: Ct"}, "[4]": {"test": "Toxicity in female C57BL/6 mouse assessed as change in cellular structure of kidney at 45 mg/kg, po administered once a day for 2 weeks by H and E staining based analysis", "type": "organism-based", "details": "in vivo, 336 h"}, "LN-229 [5]": {"test_system": "LN-229", "test": "Inhibition of sphere formation in human LN-229 cells at 4 uM measured after 10 days in well containing 100 cells by microscopic analysis", "type": "functional, cell-based", "details": "time 10.0 day"}, "U-251 [6]": {"test_system": "U-251", "test": "Inhibition of sphere formation in human U-251MG cells at 8 uM measured after 10 days in well containing 10000 cells by microscopic analysis", "type": "functional, cell-based", "details": "time 10.0 day"}, "[7]": {"test": "Drug concentration in female Sprague-Dawley rat brain at 45 mg/kg, po measured after 8 hrs by LC-MS/MS analysis", "type": "ADME, organism-based", "details": "read-out: Ct"}, "MDR1 [8]": {"test_system": "MDR1", "test": "Apparent permeability across basolateral to apical side in MDCKII-MDR1 cells at 1 uM incubated for 2 hrs by LC-MS/MS analysis", "type": "ADME, cell-based, Canis lupus familiaris", "details": "dog, MDCK-MDR1"}, "[9]": {"test": "Toxicity in female C57BL/6 mouse assessed as change in cellular structure of thymus at 45 mg/kg, po administered once a day for 2 weeks by H and E staining based analysis", "type": "organism-based", "details": "in vivo, 336 h"}, "Hs 683 [10]": {"test_system": "Hs 683", "test": "Antiproliferative activity against human Hs 683 cells assessed as inhibition of cell growth measured after 72 hrs by CCK-8 assay", "type": "functional, cell-based", "details": "Hs 683, 72 h"}, "[11]": {"test": "Drug uptake in Sprague-Dawley rat blood at 10 to 90 ng/ml, po administered as single dose and measured after 8 hrs by LC-MS/MS analysis", "type": "ADME, organism-based", "details": "in vivo, dose 10-90 ng/ml"}, "U-251 [12]": {"test_system": "U-251", "test": "Inhibition of sphere formation in human U-251MG cells at 2 uM measured after 10 days in well containing 1000 cells by microscopic analysis", "type": "functional, cell-based", "details": "time 10.0 day"}, "LN-229 [13]": {"test_system": "LN-229", "test": "Inhibition of sphere formation in human LN-229 cells incubated for 168 hrs by microscopic analysis", "type": "functional, cell-based", "details": "LN-229, 168 h"}, "U-251 [14]": {"test_system": "U-251", "test": "Inhibition of sphere formation in human U-251MG cells at 8 uM measured after 10 days in well containing 100 cells by microscopic analysis", "type": "functional, cell-based", "details": "time 10.0 day"}, "[15]": {"test": "Toxicity in female C57BL/6 mouse assessed as change in cellular structure of brain at 45 mg/kg, po administered once a day for 2 weeks by H and E staining based analysis", "type": "organism-based", "details": "in vivo, 336 h"}, "LN-229 [16]": {"test_system": "LN-229", "test": "Inhibition of cell migration in human LN-229 cells assessed as reduction in wound closure ability at 5 uM measured after 48 hrs by wound healing assay relative to control", "type": "functional"}, "U-251 [17]": {"test_system": "U-251", "test": "Induction of apoptosis in human U-251MG cells assessed as apoptotic cells at 2.5 uM incubated for 24 hrs by Annexin V-FITC/PI staining based flow cytometry analysis relative to control", "type": "functional"}, "Hs 683 [18]": {"test_system": "Hs 683", "test": "Inhibition of sphere formation in human Hs 683 cells at 8 uM measured after 10 days in well containing 1 cells by microscopic analysis", "type": "functional, cell-based", "details": "time 10.0 day"}, "[19]": {"test": "Drug concentration in male Sprague-Dawley rat liver at 45 mg/kg, po measured after 8 hrs by LC-MS/MS analysis", "type": "ADME, organism-based", "details": "read-out: Ct"}, "LN-229 [20]": {"test_system": "LN-229", "test": "Inhibition of colony formation in human LN-229 cells assessed as reduction in colony area at 2.5 uM treated on day 1 and measured after 14 days by crystal violet staining based microscopic analysis relative to control", "type": "functional", "details": "LN-229, 336 h, time 14 day"}, "[21]": {"test": "Toxicity in male C57BL/6 mouse assessed as change in cellular structure of heart at 45 mg/kg, po administered once a day for 2 weeks by H and E staining based analysis", "type": "organism-based", "details": "in vivo, 336 h"}, "LN-229 [22]": {"test_system": "LN-229", "test": "Antiproliferative activity against human LN-229 cells assessed as inhibition of cell growth measured after 72 hrs by CCK-8 assay", "type": "functional, cell-based", "details": "LN-229, 72 h"}, "H4 [23]": {"test_system": "H4", "test": "Inhibition of sphere formation in human H4 cells at 8 uM measured after 10 days in well containing 10 cells by microscopic analysis", "type": "functional, cell-based", "details": "time 10.0 day"}, "U-251 [24]": {"test_system": "U-251", "test": "Inhibition of sphere formation in human U-251MG cells assessed as fold reduction in sphere initiating frequency at 8 uM incubated for 10 days by microscopic analysis relative to control", "type": "functional", "details": "time 10 day"}, "[25]": {"target": "BUB3-interacting and GLEBS motif-containing protein ZNF207 (Homo sapiens, UniProt O43670)", "sequence (O43670 whole entry)": "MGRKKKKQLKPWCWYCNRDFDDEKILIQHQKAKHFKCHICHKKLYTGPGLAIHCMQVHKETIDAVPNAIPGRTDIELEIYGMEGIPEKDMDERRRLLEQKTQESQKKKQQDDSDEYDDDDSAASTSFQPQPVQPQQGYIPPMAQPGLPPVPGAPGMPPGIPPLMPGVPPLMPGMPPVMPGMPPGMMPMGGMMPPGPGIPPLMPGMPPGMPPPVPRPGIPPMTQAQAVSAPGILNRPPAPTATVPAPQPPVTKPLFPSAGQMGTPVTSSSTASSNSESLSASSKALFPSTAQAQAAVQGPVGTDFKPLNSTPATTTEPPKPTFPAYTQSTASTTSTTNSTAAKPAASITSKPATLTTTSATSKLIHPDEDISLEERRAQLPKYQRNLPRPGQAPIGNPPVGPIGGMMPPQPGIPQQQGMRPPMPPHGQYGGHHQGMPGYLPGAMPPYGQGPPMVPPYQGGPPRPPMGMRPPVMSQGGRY", "test": "Binding affinity to human ZNF207 assessed as dissociation constant by SPR analysis"}, "H4 [26]": {"test_system": "H4", "test": "Inhibition of sphere formation in human H4 cells at 1 uM measured after 10 days in well containing 10 cells by microscopic analysis", "type": "functional, cell-based", "details": "time 10.0 day"}, "[27]": {"test": "Toxicity in female C57BL/6 mouse assessed as change in cellular structure of intestine at 45 mg/kg, po administered once a day for 2 weeks by H and E staining based analysis", "type": "organism-based", "details": "in vivo, 336 h"}, "LN-229 [28]": {"test_system": "LN-229", "test": "Inhibition of sphere formation in human LN-229 cells at 1 uM measured after 10 days in well containing 1000 cells by microscopic analysis", "type": "functional, cell-based", "details": "time 10.0 day"}, "H4 [29]": {"test_system": "H4", "test": "Inhibition of sphere formation in human H4 cells at 8 uM measured after 10 days in well containing 1 cells by microscopic analysis", "type": "functional, cell-based", "details": "time 10.0 day"}, "NCI-H460": {"test_system": "NCI-H460", "test": "Antiproliferative activity against human NCI-H460 cells assessed as inhibition of cell growth incubated for 72 hrs by CCK-8 assay", "type": "functional, cell-based", "details": "NCI-H460, 72 h"}, "A549": {"test_system": "A549", "test": "Antiproliferative activity against human A549 cells assessed as inhibition of cell growth incubated for 72 hrs by CCK-8 assay", "type": "functional, cell-based", "details": "A549, 72 h"}, "LN-229 [30]": {"test_system": "LN-229", "test": "Inhibition of colony formation in human LN-229 cells assessed as reduction in number of cell clones treated on day 1 and measured after 14 days by crystal violet staining based microscopic analysis", "type": "functional", "details": "dose 0.625-5 µM, time 14.0 day"}, "MDR1 [31]": {"test_system": "MDR1", "test": "Efflux ratio of apparent permeability across basolateral to apical side over apical to basolateral side in MDCKII-MDR1 cells at 1 uM incubated for 2 hrs by LC-MS/MS analysis", "type": "ADME, cell-based, Canis lupus familiaris", "details": "dog, MDCK-MDR1"}, "[32]": {"test": "Toxicity in female C57BL/6 mouse assessed as change in cellular structure of liver at 45 mg/kg, po administered once a day for 2 weeks by H and E staining based analysis", "type": "organism-based", "details": "in vivo, 336 h"}, "LN-229 [33]": {"test_system": "LN-229", "test": "Inhibition of cell migration in human LN-229 cells assessed as reduction in wound closure ability measured after 24 to 48 hrs by wound healing assay", "type": "functional, cell-based", "details": "dose 2.5-10 µM, time 24-48 hrs"}, "Hs 683 [34]": {"test_system": "Hs 683", "test": "Inhibition of sphere formation in human Hs 683 cells at 1 uM measured after 10 days in well containing 1 cells by microscopic analysis", "type": "functional, cell-based", "details": "time 10.0 day"}, "LN-229-Luc": {"test_system": "LN-229-Luc", "test": "Antitumor activity against human Ln-229-Luc cells xenografted in BALB/c nude mouse assessed as increase in overall survival time at 45 mg/kg, po administered once a day and measured after 3 to 31 days", "type": "functional, organism-based", "details": "time 3-31 day"}, "H4 [35]": {"test_system": "H4", "test": "Inhibition of sphere formation in human H4 cells at 4 uM measured after 10 days in well containing 1 cells by microscopic analysis", "type": "functional, cell-based", "details": "time 10.0 day"}}, "note": "Active and inactive are the calls of the source. The rule behind the calls is not given here."}
{"smiles": "N#CC1(C(=O)NCCC2CCN(Cc3ccccc3)CC2)CC2(Br)c3ccccc3C1c1ccccc12", "note": "(racemic)", "values": [{"measurement": "inhibition", "setting": "U-251 [1]", "value": "Active"}, {"measurement": "fold change (FC)", "setting": "H4 [2]", "value": 14.09}, {"measurement": "concentration at 8 h", "setting": "[3]", "value": 655, "unit": "ng/g"}, {"measurement": "Activity", "setting": "[4]", "value": "Non-Toxic"}, {"measurement": "inhibition", "setting": "LN-229 [5]", "value": "Active"}, {"measurement": "inhibition", "setting": "U-251 [6]", "value": "inactive"}, {"measurement": "concentration at 8 h", "setting": "[7]", "value": 56.1, "unit": "ng/g"}, {"measurement": "Papp B→A at 2 h, 1 µM", "setting": "MDR1 [8]", "value": 4.09, "unit": "×10⁻⁶ cm/s"}, {"measurement": "Activity", "setting": "[9]", "value": "Non-Toxic"}, {"measurement": "IC50", "setting": "Hs 683 [10]", "value": 8.53, "unit": "µM"}, {"measurement": "Drug uptake", "setting": "[11]", "value": "Active"}, {"measurement": "inhibition", "setting": "U-251 [12]", "value": "inactive"}, {"measurement": "IC50", "setting": "LN-229 [13]", "value": 1.23, "unit": "µM"}, {"measurement": "inhibition", "setting": "U-251 [14]", "value": "Active"}, {"measurement": "Activity", "setting": "[15]", "value": "Non-Toxic"}, {"measurement": "inhibition at 5 µM", "setting": "LN-229 [16]", "value": 28.4, "unit": "%"}, {"measurement": "Activity", "setting": "U-251 [17]", "value": "~20", "unit": "%"}, {"measurement": "inhibition", "setting": "Hs 683 [18]", "value": "Active"}, {"measurement": "concentration at 8 h", "setting": "[19]", "value": 779, "unit": "ng/g"}, {"measurement": "inhibition at 2.5 µM", "setting": "LN-229 [20]", "value": 100, "unit": "%"}, {"measurement": "Activity", "setting": "[21]", "value": "Non-Toxic"}, {"measurement": "IC50", "setting": "LN-229 [22]", "value": 4.99, "unit": "µM"}, {"measurement": "inhibition", "setting": "H4 [23]", "value": "Active"}, {"measurement": "fold change (FC)", "setting": "U-251 [24]", "value": 166}, {"measurement": "Kd", "setting": "[25]", "value": 0.067, "unit": "µM"}, {"measurement": "inhibition", "setting": "H4 [26]", "value": "Active"}, {"measurement": "Activity", "setting": "[27]", "value": "Non-Toxic"}, {"measurement": "inhibition", "setting": "LN-229 [28]", "value": "inactive"}, {"measurement": "inhibition", "setting": "H4 [29]", "value": "Active"}, {"measurement": "IC50", "setting": "NCI-H460", "value": 15.6, "unit": "µM"}, {"measurement": "IC50", "setting": "A549", "value": 9.68, "unit": "µM"}, {"measurement": "inhibition", "setting": "LN-229 [30]", "value": "Dose-Dependent Effect"}, {"measurement": "efflux ratio at 2 h, 1 µM", "setting": "MDR1 [31]", "value": 3.25}, {"measurement": "Activity", "setting": "[32]", "value": "Non-Toxic"}, {"measurement": "inhibition", "setting": "LN-229 [33]", "value": "Dose-Dependent Effect"}, {"measurement": "inhibition", "setting": "Hs 683 [34]", "value": "Active"}, {"measurement": "Activity", "setting": "LN-229-Luc", "value": "Active"}, {"measurement": "inhibition", "setting": "H4 [35]", "value": "Active"}]}
